# From PubChem BioAssay AID2124 (Sanford-Burnham Center for Chemical Genomics, 2009)
# Inconclusive results are not listed. Calls of active or inactive are those of the source. How the calls were made is not given here; tested in MIN6 cells.
# Assay: cell-permeable autofluorescent compounds in GFP channel, dose response, artefact control, imaging, high-content imaging (AID 2124);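 further: cells exposed to compound for 48 hours before fixing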
# Details: cells, GFP-channel autofluorescence, high-content imaging, at 10 µM; for z-score: stronger effect = higher value
SMILES,z-score,cell count [cells]
Cc1ccccc1SCc1noc(C(=O)NC(C)C)c1C(=O)O,-0.39 (inactive),3150
Cc1ccc(CN=Cc2[nH]c3ccc(Br)c(Cl)c3c2O)cc1,-0.33 (inactive),2930
CC(NC(=O)/C(C#N)=C1\N=C(NC(=O)c2cccs2)c2ccccc21)c1ccccc1 (stereo unspecified),-0.38 (inactive),2810
N#CC1CC(c2ccc([N+](=O)[O-])cc2)=NN1c1ccc([N+](=O)[O-])cc1 (stereo unspecified),-0.25 (inactive),3490
COc1ccc(OC)c(C2=NOC(C(=O)NCC3CCCO3)C2)c1 (stereo unspecified),-0.39 (inactive),2830
C=CCn1c(-c2oc3nc(-c4ccccc4)cc(-c4ccccc4)c3c2N)n[nH]c1=S,-0.33 (inactive),2820
Cc1ccc(N2C(=O)c3cccc4c(N5CCN(C)CC5)ccc(c34)C2=O)c2cccnc12,0.07,1800
CC(=O)c1ccc2cccc3c2c1N=CN3C,-0.23 (inactive),3230
CCN(CC)c1ccc2cc(S(=O)(=O)c3ccc(Cl)cc3)c(=O)oc2c1,-0.31 (inactive),2590
N#Cc1c(-c2ccco2)cc(C2CC2)nc1SCC(=O)c1ccccc1,-0.27 (inactive),3090
O=[N+]([O-])c1ccc(N/N=C/c2sc(N3CCOCC3)nc2-c2ccccc2)c(S(=O)(=O)Nc2ccccc2Cl)c1,0.01,144
CCCc1cc(=O)[nH]c(SCC(=O)NCCCC(=O)OCC)n1,-0.33 (inactive),3040
O=C(/C=C/c1c[nH]c2ccccc12)c1c(O)n(CCc2ccccc2)c(=O)[nH]c1=O,2.73,2920
CN1CCN(Cc2nc(N)nc(Nc3ccc4c(c3)OCCO4)n2)CC1,-0.39 (inactive),3330
COc1cc([N+](=O)[O-])ccc1-c1ccc(/C=N/NC(N)=O)o1,-0.34 (inactive),2860
COc1cc(C)nc(N2CCCC(C(=O)Nc3cccc(Cl)c3C)C2)n1 (stereo unspecified),-0.38 (inactive),3090
CSc1c(C#N)c(N)nc2sc(C(=O)c3ccc(Cl)c(Cl)c3)c(N)c12,-0.28 (inactive),2770
N#CC(C#N)=C1C=C2C=C(N3CCOCC3)CCC2CC1 (stereo unspecified),1.21,3080
CS(=O)(=O)ON=C1CCN(S(=O)(=O)c2ccccc2)CC1,-0.33 (inactive),3400
CC1CC(=O)C2=C(C1)OC(N)=C(C#N)C2c1coc2ccccc2c1=O (stereo unspecified),-0.38 (inactive),3180
Cc1ccc(S(=O)(=O)Nc2ccc(=O)n(Cc3ccc(Cl)c(Cl)c3)c2)cc1,-0.33 (inactive),3230
O=C(CSc1ncn[nH]1)NCc1ccccc1,-0.39 (inactive),3380
O=C1CCCC(O)=C1C=NCCc1ccccc1,-0.38 (inactive),3080
CCOC(=O)/C(=C\C=C1/Sc2cc(OCC)c(OCC)cc2N1CC)C(C)=O,0.55,2790
CCCC1C2CN(C(C)C)CC=C2C(C#N)=C(N)C1(C#N)C#N (stereo unspecified),0.45,2800
COc1cccc(OC)c1OCCN(C)C,-0.33 (inactive),3360

SMILES,z-score,cell count [cells]
COC(=O)c1cc(NC(=O)c2ccccc2)c(=O)oc1/C=C/Nc1ccc(Oc2ccccc2)cc1,0.11,3070
Cc1cccc(-c2ncc(CN3CCCC(CO)(Cc4ccccc4C)C3)cn2)c1 (stereo unspecified),-0.35 (inactive),3340
NC(=O)c1cc2ccc(O)cc2oc1=NCc1ccccc1,-0.33 (inactive),3140
Cn1c(C(=O)N2CCC(C(=O)N3CCN(Cc4ccc5c(c4)OCO5)CC3)CC2)cc2sccc21,-0.39 (inactive),2820
CCN(CC)CCN1C(=O)c2oc3ccccc3c(=O)c2C1c1ccccc1 (stereo unspecified),-0.33 (inactive),3330
O=C(Cn1ncn2c(cc3ccccc32)c1=O)NCc1ccco1,-0.39 (inactive),2610
CCN(CC)c1ccc(C=C(c2nnnn2-c2ccccc2)c2nnnn2-c2ccccc2)cc1,-0.26 (inactive),2370
COC(=O)Cc1c(C)nc2nc(NCc3ccccc3OC)[nH]n2c1=O,-0.26 (inactive),3050
O=C(/C=C/c1ccc2ccccc2n1)c1cc(Br)ccc1O,-0.24 (inactive),2620
Cc1noc(C)c1CS(=O)(=O)c1ccc(Br)cc1,-0.26 (inactive),2900
Cc1ccc(C(=O)NN2C(=O)/C(=C/c3cn(C)c4ccccc34)SC2=S)cc1,-0.27 (inactive),3060
CCOc1ccc(NC(=S)N2CCC(N(C)CC3CCCO3)CC2)cc1 (stereo unspecified),-0.33 (inactive),2900
O=C(CC12CC3CC(CC(C3)C1)C2)NCC(=O)N1CCc2ccccc2C1,-0.33 (inactive),2920
N#C/C(=C/c1ccc(-c2ccccc2)o1)c1nc(-c2cccs2)cs1,0.88,3200
O=C(Nc1ccc(C2CCCCC2)cc1)C1CCCN(c2ncccn2)C1 (stereo unspecified),-0.38 (inactive),2990
CCCCNC(=O)/C(C#N)=c1\s/c(=C\c2ccccc2OC(F)F)c(=O)n1CCCOC,-0.37 (inactive),3260
CC1CCN(C(=O)CNS(=O)(=O)c2ccc(Br)s2)CC1,-0.33 (inactive),3290
O=S(=O)([O-])CCC[n+]1c(/C=C\Nc2ccccc2)oc2ccc(-c3ccccc3)cc21,1.34,3120
COc1ccc(/C(O)=C/c2nc3ccc(C(=O)NCCc4cccc(C)c4)cc3[nH]c2=O)cc1OC,0.56,1180
CCS(=O)(=O)N1Cc2ccccc2CC1C(=O)OCC(=O)Nc1ccc(C)cc1 (stereo unspecified),-0.33 (inactive),3150
COc1ccc(CC(=O)N2CCN(C)CC2)cc1,-0.33 (inactive),3120
CCc1nnc(NC(=O)CCC(=O)NCc2ccccc2OC)s1,-0.38 (inactive),2890
Cc1cc(=O)oc2cc(OCC(=O)OCC(=O)NC3CC3)ccc12,-0.38 (inactive),3150
CC(=O)NC(c1ccc(Cl)cc1)c1c(O)ccc2ccc(O)cc12 (stereo unspecified),-0.38 (inactive),3140
C=CCNC(=O)C1CC2Cn3c(nc4cc5ccccc5cc43)C2N1C (stereo unspecified),-0.39 (inactive),3390
Cc1cc(NC(=S)N(Cc2ccc(Br)cc2)Cc2ccc(C(=O)O)cc2)ccc1Cl,-0.38 (inactive),2830

SMILES,z-score,cell count [cells]
Cn1c(=O)c(N)c2c3c(c(Br)ccc31)C(=O)c1ccccc1-2,0.12,3210
COc1ccc(C2=NC(=O)/C(=C\c3cc(OC)c(OC)c(OC)c3)O2)cc1,-0.38 (inactive),2830
CCOC(=O)N1CCN(C(=O)NC2CCCCC2)CC1,-0.38 (inactive),3150
Nc1c(C(=O)N/N=C/c2ccccc2Cl)oc2nc(-c3ccccc3)cc(-c3ccco3)c12,-0.27 (inactive),2970
CN1CCNC(=O)C1CC(=O)NCCC1=CCCCC1 (stereo unspecified),-0.38 (inactive),3160
C(=C/c1nccc2c1[nH]c1ccccc12)/c1ccc2c(c1)OCO2,0.26,1910
CN1/C(=C/C=C(C#N)C#N)C=Cc2ccccc21,-0.35 (inactive),2500
Brc1ccc(Oc2nsnc2N2CCOCC2)cc1,-0.34 (inactive),3270
CCOc1ccc(-n2c(SCC(=O)NC(C)CC)nc3n[nH]c(C)c3c2=N)cc1 (stereo unspecified),-0.39 (inactive),2580
CC1CCCC(C2(O)C(=O)Nc3ccccc32)C1=O (stereo unspecified),-0.33 (inactive),3180
CCCCn1c(SCC(=O)O)nc2ccccc21,-0.33 (inactive),2830
CN1CCN(c2ccc(/C=C3\C(=O)NC(=S)N(c4cccc(Br)c4)C3=O)o2)CC1,-0.26 (inactive),3260
CCN1CCc2c(sc(NC(=O)Nc3ccc(Cl)c(Cl)c3)c2C(N)=O)C1,8.59,1910
CC1CCN(S(=O)(=O)c2ccc3c(c2)c(=O)c(C(=O)N2CCCCC2)cn3C)CC1,-0.33 (inactive),2850
Cc1cc(C)c(C#N)c(SCC2COc3ccccc3O2)n1 (stereo unspecified),-0.33 (inactive),3670
Cc1ccc(SCc2cc(-c3ccc(Cl)cc3)no2)cc1,-0.38 (inactive),2860
Cc1cc(C)c(C(=O)O)c(CC(C)(C)C(=O)O)c1,-0.33 (inactive),3280
CN(CCCNC(=O)CN1C(=O)CC(C)(C)S(=O)(=O)c2ccccc21)C1CCCCC1,-0.33 (inactive),3030
N#C/C(=C/c1ccc(N2CCCCC2)o1)C(=O)Nc1ccc(Cl)cc1,3,2990
Cc1nc(NC(=O)COC(=O)CCS(=O)(=O)c2ccccc2Cl)c(Cl)cc1Cl,-0.39 (inactive),3210
CC1=Nc2ccccc2/C1=C/c1sc(=S)n(-c2cccc(C(=O)O)c2)c1O,-0.37 (inactive),3380
CCCCNc1ccc2c3c(cccc13)C(=O)N(CCCC)C2=O,3.41,2720
Nc1c(C(=O)N/N=C/c2cccnc2)oc2nc(-c3ccco3)cc(-c3ccco3)c12,-0.32 (inactive),2960
COc1ccc(C(=O)Nn2cnnc2)cc1OC,-0.39 (inactive),2930
O=C(C1=NN(c2ccccc2)C2C(=O)N(c3cccc(Cl)c3)C(=O)C12)c1ccccc1 (stereo unspecified),-0.32 (inactive),3140
N#CC(C#N)=C1C=C2C=C(N3CCCCC3)CCC2CC1 (stereo unspecified),3,3020
